# According to PubChem BioAssay (NCI):
#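 Results reflect a 48-hour exposure of cells in 96-well plates to compound at five concentrations. GI50 marks 50% less growth. TGI: total growth inhibition.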
# Key:
# Test in all cases: growth of human tumour cells (NCI), 48 h
# SK-OV-3 ovarian = tested on: SK-OV-3 ovarian
# HS 578T breast = tested on: HS 578T breast
# 786-0 renal = tested on: 786-0 renal
# HOP-62 NSCLC = tested on: HOP-62 NSCLC
# HCC-2998 colon = tested on: HCC-2998 colon
# SNB-75 CNS = tested on: SNB-75 CNS
# RXF 393 renal = tested on: RXF 393 renal
# TK-10 renal = tested on: TK-10 renal
# SF-268 CNS = tested on: SF-268 CNS
# HOP-92 NSCLC = tested on: HOP-92 NSCLC
# SNB-19 CNS = tested on: SNB-19 CNS
# SF-295 CNS = tested on: SF-295 CNS
# UACC-257 melanoma = tested on: UACC-257 melanoma
# SR leukemia = tested on: SR leukemia
# DU-145 prostate = tested on: DU-145 prostate
# A498 renal = tested on: A498 renal
# SK-MEL-5 melanoma = tested on: SK-MEL-5 melanoma
# MCF7 breast = tested on: MCF7 breast
# LOX IMVI melanoma = tested on: LOX IMVI melanoma
# M14 melanoma = tested on: M14 melanoma
# SF-539 CNS = tested on: SF-539 CNS
# NCI-H522 lung = tested on: NCI-H522 lung
# OVCAR-3 ovarian = tested on: OVCAR-3 ovarian
# RPMI-8226 leukemia = tested on: RPMI-8226 leukemia
# U251 CNS = tested on: U251 CNS
# HL-60(TB) leukemia = tested on: HL-60(TB) leukemia
smiles,measurement,setting,value
Cc1cc2c(C#N)n3c(c2cc1C)C(=O)C(c1ccccc1)Oc1ccccc1-3 (stereo not drawn),GI50,SK-OV-3 ovarian,5.55 µM
same,TGI,SK-OV-3 ovarian,> 100 µM
same,GI50,HS 578T breast,4.29 µM
same,TGI,HS 578T breast,> 100 µM
same,GI50,786-0 renal,3.91 µM
same,TGI,786-0 renal,> 100 µM
same,GI50,HOP-62 NSCLC,3.71 µM
same,TGI,HOP-62 NSCLC,> 100 µM
same,GI50,HCC-2998 colon,> 100 µM
same,TGI,HCC-2998 colon,> 100 µM
same,GI50,SNB-75 CNS,2.25 µM
same,TGI,SNB-75 CNS,9.58 µM
same,GI50,RXF 393 renal,2.71 µM
same,TGI,RXF 393 renal,39.6 µM
same,GI50,TK-10 renal,3.33 µM
same,TGI,TK-10 renal,> 100 µM
same,GI50,SF-268 CNS,3.73 µM
same,TGI,SF-268 CNS,> 100 µM
same,GI50,HOP-92 NSCLC,1.62 µM
same,TGI,HOP-92 NSCLC,5.77 µM
same,GI50,SNB-19 CNS,2.97 µM
same,TGI,SNB-19 CNS,> 100 µM
same,GI50,SF-295 CNS,3.83 µM
same,TGI,SF-295 CNS,> 100 µM
N=C(N)c1ccc(-c2ccc(-c3ccc(Cl)cc3)s2)s1,GI50,SK-OV-3 ovarian,1.7 µM
same,TGI,SK-OV-3 ovarian,3.15 µM
same,GI50,UACC-257 melanoma,2.78 µM
same,TGI,UACC-257 melanoma,4.9 µM
same,GI50,SR leukemia,0.322 µM
same,TGI,SR leukemia,> 100 µM
same,GI50,DU-145 prostate,1.62 µM
same,TGI,DU-145 prostate,2.98 µM
same,GI50,A498 renal,13 µM
same,TGI,A498 renal,45.3 µM
same,GI50,SK-MEL-5 melanoma,3.16 µM
same,TGI,SK-MEL-5 melanoma,8.66 µM
CC(C)OC(=S)[S-].[Au+].c1ccc([PH+](c2ccccc2)c2ccccc2)cc1,GI50,MCF7 breast,0.467 µM
same,TGI,MCF7 breast,2.66 µM
same,GI50,LOX IMVI melanoma,0.478 µM
same,TGI,LOX IMVI melanoma,2.07 µM
same,GI50,M14 melanoma,0.986 µM
same,TGI,M14 melanoma,2.32 µM
same,GI50,SF-539 CNS,1.24 µM
same,TGI,SF-539 CNS,2.49 µM
same,GI50,NCI-H522 lung,0.176 µM
same,TGI,NCI-H522 lung,0.409 µM
same,GI50,OVCAR-3 ovarian,0.316 µM
same,TGI,OVCAR-3 ovarian,1.05 µM
same,GI50,RPMI-8226 leukemia,0.747 µM
same,TGI,RPMI-8226 leukemia,4.01 µM
same,GI50,RXF 393 renal,0.387 µM
same,TGI,RXF 393 renal,1.48 µM
same,GI50,U251 CNS,0.419 µM
same,TGI,U251 CNS,1.56 µM
same,GI50,HOP-92 NSCLC,1.07 µM
same,TGI,HOP-92 NSCLC,2.25 µM
same,GI50,HL-60(TB) leukemia,0.264 µM
same,TGI,HL-60(TB) leukemia,1.36 µM
